Biological target: Btk (Homo sapiens, UniProt Q06187)
Assay: Btk TR-FRET kinase inhibition assay
Type: biochemical
Details: pH 7.4, ATP at the Km for the kinase, 1 μM peptide substrate, [Btk]total=0.5 nM, read-out: Btk-TRFRET (Ki)
Method: Suitable in vitro assays for measuring kinase activity and the inhibition thereof by compounds are known (e.g., see Kuzmic et al. Anal. Biochem. 2000, 286, 45-50).
The following protocol represents an assay for determination of inhibition of kinases under physiological conditions (pH 7.4). Kinase activity was determined using a time-resolved fluorescence resonance energy transfer (TR-FRET) methodology. Measurements were performed in a reaction volume of 50 μL using 96-well assay plates. Kinase enzyme, inhibitor, ATP (at the Km for the kinase), and 1 μM peptide substrate (Biotin-AVLESEEELYSSARQ-NH2) were incubated in a reaction buffer composed of 20 mM Tris, 50 mM NaCl, MgCl2 (5-25 mM depending on the kinase), 1 mM DTT, 0.1 mM EDTA, 0.01% bovine serum albumin, 0.005% Tween-20, and 10% DMSO at pH 7.4 for one hour. The reaction was quenched by the addition of 1.2 equivalents of EDTA (relative to Mg^2+) in 25 μL of 1× Lance buffer (Perkin-Elmer). Streptavidin-APC (Perkin-Elmer) and Eu-labeled p-Tyr100 antibody (Perkin-Elmer) in 1× Lance buffer were added in a 25 μL volume to give final concentrations of 100 nM and 2.5 nM, respectively, and the mixture was allowed to incubate for one hour. The TR-FRET signal was measured on a multimode plate reader with an excitation wavelength of 330 nm and detection wavelengths of 615 nm and 665 nm. Activity was determined by the ratio of the fluorescence at 665 nm to that at 615 nm. For each compound, enzyme activity was measured at various concentrations of compound. Negative control reactions were performed in the absence of inhibitor in replicates of six, and two no-enzyme controls were used to determine baseline fluorescence levels. Inhibition constants were obtained using the program BatchKi (Kuzmic et al. Anal. Biochem. 2000, 286, 45-50). IC50s were obtained according to this equation: IC50={Ki(app)/(1+[ATP]/Km^ATP)}+[E]total/2; for all kinases, [ATP]=Km^ATP, [Btk]total=0.5 nM and [Lck]total=6 nM.

Btk, sequence (Q06187 whole entry): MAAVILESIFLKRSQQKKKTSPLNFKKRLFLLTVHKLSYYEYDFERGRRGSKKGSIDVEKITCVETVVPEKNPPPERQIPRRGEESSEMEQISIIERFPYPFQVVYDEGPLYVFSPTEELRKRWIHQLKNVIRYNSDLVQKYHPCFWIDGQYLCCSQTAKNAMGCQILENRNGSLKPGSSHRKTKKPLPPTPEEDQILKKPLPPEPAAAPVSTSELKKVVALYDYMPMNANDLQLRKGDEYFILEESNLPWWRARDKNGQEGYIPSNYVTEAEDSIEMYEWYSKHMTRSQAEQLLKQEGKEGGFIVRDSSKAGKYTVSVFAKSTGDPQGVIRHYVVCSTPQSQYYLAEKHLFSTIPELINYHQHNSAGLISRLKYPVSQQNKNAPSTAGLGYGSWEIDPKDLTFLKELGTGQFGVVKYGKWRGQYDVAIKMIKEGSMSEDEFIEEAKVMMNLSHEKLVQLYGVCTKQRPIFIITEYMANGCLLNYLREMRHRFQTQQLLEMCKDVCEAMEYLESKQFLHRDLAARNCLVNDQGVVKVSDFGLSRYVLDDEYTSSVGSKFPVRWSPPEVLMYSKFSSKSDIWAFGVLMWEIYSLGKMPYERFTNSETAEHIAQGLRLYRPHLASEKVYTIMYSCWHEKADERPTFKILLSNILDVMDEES

| Compound | Ki [nM] |
| --- | --- |
| Cc1cc(F)ccc1Nc1nc2ccc3c(C)c(C=CCN4CCN(C(=O)OC(C)(C)C)CC4)[nH]c(=O)c3c2n1C [Compound 31, 2-(4-fluoro-2-methylphenylamino)-1,6-dimethyl-7-[3-(N-tert-butyloxycarbonylpiperazin-1-yl)-propenyl]-1,8-dihydro-imidazo[4,5-h]isoquinolin-9-one] | < 100 |
| Cc1cc(F)ccc1Nc1nc2ccc3c(C)c(C=CCN4CCN(S(=O)(=O)N(C)C)CC4)[nH]c(=O)c3c2n1C [Compound 32, 2-(4-fluoro-2-methylphenylamino)-1,6-dimethyl-7-[3-(N—(N,N-dimethylaminosulfonyl)-piperazin-1-yl)-propenyl]-1,8-dihydro-imidazo[4,5-h]isoquinolin-9-one] | < 100 |
| CCC(=O)N1CCN(CC=Cc2[nH]c(=O)c3c(ccc4nc(Nc5ccc(F)cc5C)n(C)c43)c2C)CC1 [Compound 33, 2-(4-fluoro-2-methylphenylamino)-1,6-dimethyl-7-[3-(N-ethylcarbonylpiperazin-1-yl)-propenyl]-1,8-dihydro-imidazo[4,5-h]isoquinolin-9-one] | < 100 |
| Cc1cc(F)ccc1Nc1nc2ccc3c(C)c(C=CCN4CCN(S(=O)(=O)C(C)C)CC4)[nH]c(=O)c3c2n1C [Compound 34, 2-(4-fluoro-2-methylphenylamino)-1,6-dimethyl-7-[3-(N-(isopropylsulfonyl)-piperazin-1-yl)-propenyl]-1,8-dihydro-imidazo[4,5-h]isoquinolin-9-one] | < 100 |
| CCS(=O)(=O)N1CCN(CC=Cc2[nH]c(=O)c3c(ccc4nc(Nc5ccc(F)cc5C)n(C)c43)c2C)CC1 [Compound 35, 2-(4-fluoro-2-methylphenylamino)-1,6-dimethyl-7-[3-(N-(ethylsulfonyl)-piperazin-1-yl)-propenyl]-1,8-dihydro-imidazo[4,5-h]isoquinolin-9-one] | < 100 |
| Cc1cc(F)ccc1Nc1nc2ccc3c(C)c(C=CCN4CCN(C(=O)C(C)C)CC4)[nH]c(=O)c3c2n1C [Compound 36, 2-(4-fluoro-2-methylphenylamino)-1,6-dimethyl-7-[3-(N-isopropylcarbonylpiperazin-1-yl)-propenyl]-1,8-dihydro-imidazo[4,5-h]isoquinolin-9-one] | < 100 |
| Cc1c(C=CS(=O)(=O)c2ccccc2)[nH]c(=O)c2c1ccc1nc(Nc3c(Cl)cccc3Cl)n(C)c12 [Compound 37, 2-(2,6-dichlorophenylamino)-1,6-dimethyl-7-[2-(phenylsulfonyl)-ethenyl]-1,8-dihydro-imidazo[4,5-h]isoquinolin-9-one] | < 100 |
| Cc1c(C(O)C(F)(F)c2cn(Cc3ccccc3)nn2)[nH]c(=O)c2c1ccc1nc(Nc3c(Cl)cccc3Cl)n(C)c12 (stereo not shown) [Compound 40, 2-(2,6-dichlorophenylamino)-1,6-dimethyl-7-[2,2-difluoro-1-hydroxy-2-(N-phenylmethyl-[1,2,3]triazol-4-yl)-ethyl]-1,8-dihydro-imidazo[4,5-h]isoquinolin-9-one] | > 1000 |
| Cc1c(C(O)C#Cc2ccccc2)[nH]c(=O)c2c1ccc1nc(Nc3c(Cl)cccc3Cl)n(C)c12 (stereo not shown) [Compound 41, 2-(2,6-dichlorophenylamino)-1,6-dimethyl-7-(1-hydroxy-3-phenylprop-2-yn-1-yl)-1,8-dihydro-imidazo[4,5-h]isoquinolin-9-one] | 100 to 1000 |
| C#CCN(C)CC=Cc1[nH]c(=O)c2c(ccc3nc(Nc4c(Cl)cccc4Cl)n(C)c32)c1C [Compound 42, 2-(2,6-dichlorophenylamino)-1,6-dimethyl-7-[3-(N-methyl-N-(prop-2-ynyl)amino)prop-1-enyl]-1,8-dihydro-imidazo[4,5-h]isoquinolin-9-one] | < 100 |
| C#CCN(C)CC=Cc1[nH]c(=O)c2c(ccc3nc(Nc4ccc(F)cc4C)n(C)c32)c1C [Compound 43, 2-(4-fluoro-2-methylphenylamino)-1,6-dimethyl-7-[3-(N-methyl-N-(prop-2-ynyl)amino)prop-1-enyl]-1,8-dihydro-imidazo[4,5-h]isoquinolin-9-one] | < 100 |

Second part, the molecule after the results:

| Ki [nM] | Compound |
| --- | --- |
| < 100 | Cc1c(/C=N/O)[nH]c(=O)c2c1ccc1nc(Nc3c(Cl)cccc3Cl)n(C)c12 [Compound 44, 2-(2,6-dichlorophenylamino)-1,6-dimethyl-9-oxo-8,9-dihydro-1H-imidazo[4,5-h]isoquinoline-7-carbaldehyde oxime] |
| 100 to 1000 | Cc1c(C=NNC(=O)c2ccccc2)[nH]c(=O)c2c1ccc1nc(Nc3c(Cl)cccc3Cl)n(C)c12 [Compound 45, benzoic acid [2-(2,6-dichlorophenylamino)-1,6-dimethyl-9-oxo-8,9-dihydro-1H-imidazo[4,5-h]isoquinolin-7-ylmethylene]-hydrazide] |
| > 1000 | Cc1c(C=NNC(=O)c2ccc(N(C)C)cc2)[nH]c(=O)c2c1ccc1nc(Nc3c(Cl)cccc3Cl)n(C)c12 [Compound 46, 4-(N,N-dimethylamino)-benzoic acid [2-(2,6-dichlorophenylamino)-1,6-dimethyl-9-oxo-8,9-dihydro-1H-imidazo[4,5-h]isoquinolin-7-ylmethylene]-hydrazide] |
| 100 to 1000 | Cc1c(C=NNC(=O)c2ccccn2)[nH]c(=O)c2c1ccc1nc(Nc3c(Cl)cccc3Cl)n(C)c12 [Compound 47, pyridine-2-carboxylic acid [2-(2,6-dichlorophenylamino)-1,6-dimethyl-9-oxo-8,9-dihydro-1H-imidazo[4,5-h]isoquinolin-7-ylmethylene]-hydrazide] |
| 100 to 1000 | Cc1c(C=NNC(=O)c2cccnc2)[nH]c(=O)c2c1ccc1nc(Nc3c(Cl)cccc3Cl)n(C)c12 [Compound 48, pyridine-3-carboxylic acid [2-(2,6-dichlorophenylamino)-1,6-dimethyl-9-oxo-8,9-dihydro-1H-imidazo[4,5-h]isoquinolin-7-ylmethylene]-hydrazide] |
| 100 to 1000 | COc1ccccc1C(=O)NN=Cc1[nH]c(=O)c2c(ccc3nc(Nc4c(Cl)cccc4Cl)n(C)c32)c1C [Compound 49, 2-methoxy-benzoic acid [2-(2,6-dichlorophenylamino)-1,6-dimethyl-9-oxo-8,9-dihydro-1H-imidazo[4,5-h]isoquinolin-7-ylmethylene]-hydrazide] |
| 100 to 1000 | Cc1cc(F)ccc1Nc1nc2ccc3c(CC(=O)N4CCP(=O)(c5ccc(F)cc5)CC4)c(C)[nH]c(=O)c3c2n1C [Compound 50, 2-(4-fluoro-2-methylphenylamino)-1,7-dimethyl-6-{2-[4-(4-fluorophenyl)-4-oxo-4λ^5[1,4]azaphosphinan-1-yl]-2-oxoethyl}-1,8-dihydro-imidazo[4,5-h]isoquinolin-9-one] |
| 100 to 1000 | CCC[C@@H](C=CS(=O)(=O)c1ccccc1)NC(=O)Cc1c(C)[nH]c(=O)c2c1ccc1nc(Nc3ccc(F)cc3C)n(C)c12 [Compound 51, (S)-2-(4-fluoro-2-methylphenylamino)-1,7-dimethyl-6-{N-[1-(phenylsulfonyl)hex-1-en-3-yl]-amino-2-oxoethyl}-1,8-dihydro-imidazo[4,5-h]isoquinolin-9-one] |

From patent publication US8067395B2, “Inhibitors of tyrosine kinases and uses thereof” (Pharmacyclics, Inc., priority 2006, dated 2011)
